Earlier results, collected in patent US8338072B2, “Resist composition, resist pattern forming process, and method for manufacturing semiconductor device” (Fujitsu Limited, priority 2006, dated 2012).

Details: Table 1, additives 4A to 4F

| Compound | pKa |
| --- | --- |
| CC(O)C(=O)O (stereo not shown) [Example 4B, Lactic acid] | 4.57 |
| NCCN [Example 4D, Ethylenediamine] | 7.12 |
| CCCCCCN [Example 4E, Hexylamine] | 10.85 |
| CCCCCN [Example 4F, Pentylamine] | 10.93 |

Same assay, conditions: values for example additives

| Compound | pKa |
| --- | --- |
| NCc1ccccc1O [2-hydroxybenzylamine] | 8.63 |
| NCCN [Example 4D, Ethylenediamine] | 7.12 |
| CCCCCN [Example 4F, Pentylamine] | 10.93 |
| CCCC(=O)O [butyric acid] | 4.57 |
| NC1CCCCC1 [cyclohexylamine] | 10.62 |
| NC1CCCC1 [cyclopentylamine] | 10.56 |
| c1ccc(Nc2ccccc2)cc1 [diphenylamine] | 13.65 |
| O=C(O)/C=C/C(=O)O [fumaric acid] | 3.07 |
| CCCN [propylamine] | 10.93 |
| O=C(O)CCC(=O)O [succinic acid] | 3.99 |
| CCCCC(=O)O [valeric acid] | 5.17 |
| methylpyridine | 5.80-6.10 |
